The subject of data set [1] is wheat powdery mildew fungus (Erysiphe graminis). The data set can be described thus: Preventive activity on wheat powdery mildew (Test Example 1). To be noted: foliar application on wheat, wettable powder. In kind it is in vivo.
In data set [2] the test system is wheat brown rust fungus (Puccinia recondita). The data set can be described thus: Preventive activity on wheat brown rust (Test Example 2). In kind it is in vivo. The conditions noted are these: 10 ppm, foliar application on wheat, wettable powder.
The subject of another data set is CD rats (female). The data set can be described thus: Oral acute toxicity test using rats (Test Example 3). The conditions noted are these: for LC50 value: CD rats (female), single oral administration, suspended in tragacanth gum aqueous solution.
For data set [3], the system named is wheat powdery mildew fungus (Erysiphe graminis f. sp. tritici). The data set can be described thus: Effect of combined application for controlling wheat powdery mildew (Test Example 5). In kind it is in vivo. To be noted: single chemical.
Data set [4] deals with wheat brown rust fungus (Puccinia recondita). Put plainly: Effect of combined application for controlling wheat brown rust (Test Example 6). The data set is classed as in vivo. To be noted: single chemical.
Data set [5] concerns tomato late blight fungus (Phytophthora infestans). In kind it is in vivo. The conditions noted are these: single chemical.
Data set [6] relates to cucumber gray mold fungus (Botrytis cinerea). The data set can be described thus: Effect of combined application for controlling cucumber gray mold (Test Example 8). In kind it is in vivo. The conditions noted are these: single chemical, from diameter of lesion.

Molecules are shown by their SMILES. Like-named read-outs stand apart in the source and are kept apart here.

Description for CD rats (female): Each of the compound No. 2 and its racemate No. 2r was suspended in tragacanth gum aqueous solution and applied to CD rats (female) by single oral administration in a dosage of 300, 600, 1,200, 2,500 or 5,000 mg/kg to obtain its LC50 value.

For `CNC(=O)C(=NOC)c1ccccc1C=NOC(C)c1cccc(C(F)(F)F)c1` (racemic) [2r, N-methyl-2-[2-{1-(3-trifluoromethylphenyl)ethoxyiminomethyl}phenyl]-2-methoxyiminoacetamide], the “Preventive value (%)” value is on record as 64% in data set [1] (2.0 ppm) and 96% in data set [1] (4.0 ppm). For the same compound, the Preventive value in data set [2] turned out to be 32. Also, the LC50 value in the data set on CD rats (female) was 1,784 mg/kg. Moreover, in the data set on CD rats (female) (single oral dosage of 300 mg/kg), the mortality result is listed as “no mortality”. Further, the cases died with CD rats (female) (single oral dosage of 600 mg/kg) is 1/5; with CD rats (female) (single oral dosage of 1,200 mg/kg) it was 1/5; in the data set on CD rats (female) (single oral dosage of 2,500 mg/kg), 4/5; with CD rats (female) (single oral dosage of 5,000 mg/kg) it was 4/5.
Regarding `CC(Cc1ccc(C(C)(C)C)cc1)CN1C[C@@H](C)O[C@@H](C)C1` (mixture of isomers) [Known compound c, (±)-cis-4-[3-(4-tert-butylphenyl)-2-methylpropyl]-2,6-dimethylmorpholine], the “Preventive value (%)” value was found to be 18% in data set [3] (2.4 ppm), 50% in data set [3] (12 ppm), 0% in data set [4] (2.4 ppm) and 0% in data set [4] (12 ppm).
As to `CNC(=O)C(=NOC)c1ccccc1C=NO[C@H](C)c1cccc(C(F)(F)F)c1` (single isomer, unassigned) [compound 1], the entries for the “Preventive value (%)” value in data set [1] (2.0 ppm) and in data set [1] (4.0 ppm) were 6% and 51%, respectively. The Preventive value in data set [2] is 0.
As for `CC(C)(C)C(O)(CCc1ccc(Cl)cc1)Cn1cncn1` (racemic) [Known compound b, (RS)-1-p-chlorophenyl-4,4-dimethyl-3-(1H-1,2,4-triazol-1-ylmethyl)pentan-3-ol], the “Preventive value (%)” value in data set [3] (0.2 ppm) came to 23%; in data set [3] (1 ppm) it was 65%; in data set [4] (0.2 ppm), 22%; in data set [4] (1 ppm), 75%.
With `CNC(=O)C(=NOC)c1ccccc1C=NO[C@@H](C)c1cccc(C(F)(F)F)c1` (single isomer, unassigned) [compound 2], the “Preventive value (%)” value is 97% in data set [1] (2.0 ppm); 100% in data set [1] (4.0 ppm); 25% in data set [3] (0.2 ppm); 87% in data set [3] (1 ppm); 2% in data set [4] (0.2 ppm); 48% in data set [4] (1 ppm). Besides, the “Preventive value (%)” value in data set [5] (0.4 ppm) turned out to be 23%; in data set [5] (2 ppm) it was 73%; in data set [5] (10 ppm), 95%; in data set [6] (0.4 ppm), 13%; in data set [6] (2 ppm), 53%; in data set [6] (10 ppm), 94%. The compound also gave a Preventive value in data set [2] of 99. For the same compound, in the data set on CD rats (female), the LC50 value was ≥ 5,000 mg/kg.
In the case of `O=[N+]([O-])c1cc(C(F)(F)F)c(Cl)c([N+](=O)[O-])c1Nc1ncc(C(F)(F)F)cc1Cl` [Known compound f], the figures for the “Preventive value (%)” value in data set [6] (0.2 ppm), in data set [6] (1 ppm) and in data set [6] (5 ppm) were 52%, 68% and 98%, respectively.
As for `CC1(C)CCC(Cc2ccc(Cl)cc2)C1(O)Cn1cncn1` (racemic) [Known compound a, (1RS,5RS;1RS,5SR)-5-(4-chlorobenzyl)-2,2-dimethyl-1-(1H-1,2,4-triazol-1-ylmethyl)cyclopentanol], the “Preventive value (%)” value in data set [3] (0.2 ppm) is listed as 35%; in data set [3] (1 ppm), 80%; in data set [4] (0.2 ppm), 25%; in data set [4] (1 ppm) it was 81%.
On to `CCCN(CCOc1c(Cl)cc(Cl)cc1Cl)C(=O)n1ccnc1` [Known compound d, N-propyl-N-[2-(2,4,6-trichlorophenoxy)ethyl]imidazole-1-carboxamide], for which the “Preventive value (%)” value is 0% in data set [4] (2.4 ppm); 19% in data set [4] (12 ppm); 62% in data set [5] (0.2 ppm); 79% in data set [5] (1 ppm); 95% in data set [5] (5 ppm).

The record behind these values is patent EP0949243A1, “OPTICALLY ACTIVE METHOXYIMINOACETAMIDE DERIVATIVES, PROCESS FOR THE PREPARATION OF THEM, INTERMEDIATES THEREFOR, AND PESTICIDES CONTAINING THEM AS THE ACTIVE INGREDIENT” (MITSUBISHI CHEMICAL CORPORATION, priority 1996, dated 1998).
